Like-named read-outs stand apart in the source and are kept apart here.
Columns and labels:
[1] = tested on: patients with chronic atrial fibrillation; assay: PETRO phase 2 12-week dose finding study; type: in vivo, human
Source text: Primary endpoints were bleeding events and changes in D-dimer. […] Minor bleeding was dose related.

[2] = tested on: activated partial thromboplastin time (aPTT), ecarin clotting time, and thrombin clotting time; assay: Anticoagulant pharmacodynamics (clotting times)
[3] = tested on: patients with atrial fibrillation
Procedure: The PETRO-Ex study was conducted in 52 centers in the United States, Denmark, The Netherlands, and Sweden.
PETRO-Ex began while the PETRO study was ongoing and investigators were initially kept blinded to patient treatment group until PETRO was completed.
Data were summarized descriptively; no hypothesis was to be tested. Events were analyzed on the basis of the treatment at onset. Incidences were reported as number of patients with events as well as normalized to 100 patient-years on the respective treatment.
Patients who completed PETRO on 50 mg b.i.d. were switched to 150 mg q.d. upon entry in the PETRO-Ex study (N=93 patients). […] Patients who were down titrated to 50 mg q.d. based on a glomerular filtration rate ≦50 mL/min during PETRO were excluded from the long-term trial; patients down-titrated in other dose levels remained on the q.d. treatment at that dose.
The total exposure reflects both trials, PETRO and PETRO-Ex, together.

[4] = human, in vivo, po
Procedure: Ezekowitz M D, et al., Dabigatran with or without concomitant aspirin compared with warfarin alone in patients with nonvalvular atrial fibrillation (PETRO study), Am. […] The PETRO study is described below.
Peak levels are seen within 2-3 hours of oral administration. […] Steady-state is reached within 2-3 days with a twice daily regimen. […] The remainder undergoes conjugation with glucuronic acid to form acylglucuronides which are excreted primarily in the bile.

CCCCCCOC(=O)NC(=N)c1ccc(NCc2nc3cc(C(=O)N(CCC(=O)OCC)c4ccccn4)ccc3n2C)cc1 [Dabigatran etexilate, 1-methyl-2-[N-[4-(N-n-hexyloxycarbonylamidino)phenyl]aminomethyl]benzimidazol-5-ylcarboxylic ac id-N-(2-pyridyl)-N-(2-ethoxycarbonylethyl)amides]
Major bleeding events, number ([1]; 300 mg b.i.d. plus ASA groups, 12 weeks): Four
Elevated transaminases >3× upper limit of normal (ULN) ([1]; all dabigatran etexilate-treated patients): 0.9%
Minor bleeding ([1]; in vivo): dose related
Onset of anticoagulant effect after dosing [2]: within one hour
ALT or AST >2xULN, number of patients ([3]; 50 mg b.i.d.): 0
ALT or AST >3xULN and Bili >2xULN within 30 days, number of patients ([3]; 50 mg b.i.d.): 0
ALT or AST >3xULN, number of patients ([3]; 50 mg b.i.d.): 0
ALT or AST >5xULN, number of patients ([3]; 50 mg b.i.d.): 0
Adverse Events leading to premature discontinuation, number of patients ([3]; 50 mg b.i.d.): 5
MI, number of patients ([3]; 50 mg b.i.d.): 0
Major Bleeds with aspirin, number of patients ([3]; 50 mg b.i.d.): 0
Major Bleeds without aspirin, number of patients ([3]; 50 mg b.i.d.): 0
Major Bleeds, number of patients ([3]; 50 mg b.i.d.): 0
Other MACE, number of patients ([3]; 50 mg b.i.d.): 2
Stroke and Systemic Thromboembolism, number of patients ([3]; 50 mg b.i.d.): 3
TIA, number of patients ([3]; 50 mg b.i.d.): 0
ALT or AST >2xULN, number of patients ([3]; 50 mg q.d.): 0
ALT or AST >3xULN and Bili >2xULN within 30 days, number of patients ([3]; 50 mg q.d.): 0
ALT or AST >3xULN, number of patients ([3]; 50 mg q.d.): 0
ALT or AST >5xULN, number of patients ([3]; 50 mg q.d.): 0
Adverse Events leading to premature discontinuation, number of patients ([3]; 50 mg q.d.): 0
MI, number of patients ([3]; 50 mg q.d.): 0
Major Bleeds with aspirin, number of patients ([3]; 50 mg q.d.): 0
Major Bleeds without aspirin, number of patients ([3]; 50 mg q.d.): 0
Major Bleeds, number of patients ([3]; 50 mg q.d.): 0
Other MACE, number of patients ([3]; 50 mg q.d.): 0
Stroke and Systemic Thromboembolism, number of patients ([3]; 50 mg q.d.): 0
TIA, number of patients ([3]; 50 mg q.d.): 0
ALT or AST >2xULN, number of patients ([3]; 150 mg b.i.d.): 21
ALT or AST >3xULN and Bili >2xULN within 30 days, number of patients ([3]; 150 mg b.i.d.): 3
ALT or AST >3xULN, number of patients ([3]; 150 mg b.i.d.): 13
ALT or AST >5xULN, number of patients ([3]; 150 mg b.i.d.): 7
Adverse Events leading to premature discontinuation, number of patients ([3]; 150 mg b.i.d.): 67
MI, number of patients ([3]; 150 mg b.i.d.): 6
Major Bleeds with aspirin, number of patients ([3]; 150 mg b.i.d.): 11
Major Bleeds without aspirin, number of patients ([3]; 150 mg b.i.d.): 18
Major Bleeds without aspirin, rate ([3]; 150 mg b.i.d.): 3.2 % per year
Major Bleeds, number of patients ([3]; 150 mg b.i.d.): 29
Other MACE, number of patients ([3]; 150 mg b.i.d.): 7
Stroke and Systemic Thromboembolism, number of patients ([3]; 150 mg b.i.d.): 7
TIA, number of patients ([3]; 150 mg b.i.d.): 1
ALT or AST >2xULN, number of patients ([3]; 150 mg q.d.): 2
ALT or AST >3xULN and Bili >2xULN within 30 days, number of patients ([3]; 150 mg q.d.): 0
ALT or AST >3xULN, number of patients ([3]; 150 mg q.d.): 0
ALT or AST >5xULN, number of patients ([3]; 150 mg q.d.): 0
Adverse Events leading to premature discontinuation, number of patients ([3]; 150 mg q.d.): 8
MI, number of patients ([3]; 150 mg q.d.): 0
Major Bleeds with aspirin, number of patients ([3]; 150 mg q.d.): 0
Major Bleeds without aspirin, number of patients ([3]; 150 mg q.d.): 3
Major Bleeds without aspirin, rate ([3]; 150 mg q.d.): 6.5 % per year
Major Bleeds, number of patients ([3]; 150 mg q.d.): 3
Other MACE, number of patients ([3]; 150 mg q.d.): 0
Stroke and Systemic Thromboembolism, number of patients ([3]; 150 mg q.d.): 3
TIA, number of patients ([3]; 150 mg q.d.): 0
ALT or AST >2xULN, number of patients ([3]; 300 mg b.i.d.): 4
ALT or AST >3xULN and Bili >2xULN within 30 days, number of patients ([3]; 300 mg b.i.d.): 0
ALT or AST >3xULN, number of patients ([3]; 300 mg b.i.d.): 2
ALT or AST >5xULN, number of patients ([3]; 300 mg b.i.d.): 1
Adverse Events leading to premature discontinuation, number of patients ([3]; 300 mg b.i.d.): 21
MI, number of patients ([3]; 300 mg b.i.d.): 0
Major Bleeds with aspirin, number of patients ([3]; 300 mg b.i.d.): 6
Major Bleeds without aspirin, number of patients ([3]; 300 mg b.i.d.): 4
Major Bleeds without aspirin, rate ([3]; 300 mg b.i.d.): 6.3 % per year
Major Bleeds, number of patients ([3]; 300 mg b.i.d.): 10
Other MACE, number of patients ([3]; 300 mg b.i.d.): 1
Stroke and Systemic Thromboembolism, number of patients ([3]; 300 mg b.i.d.): 1
TIA, number of patients ([3]; 300 mg b.i.d.): 0
ALT or AST >2xULN, number of patients ([3]; 300 mg q.d.): 3
ALT or AST >3xULN and Bili >2xULN within 30 days, number of patients ([3]; 300 mg q.d.): 1
ALT or AST >3xULN, number of patients ([3]; 300 mg q.d.): 3
ALT or AST >5xULN, number of patients ([3]; 300 mg q.d.): 3
Adverse Events leading to premature discontinuation, number of patients ([3]; 300 mg q.d.): 19
MI, number of patients ([3]; 300 mg q.d.): 1
Major Bleeds with aspirin, number of patients ([3]; 300 mg q.d.): 2
Major Bleeds without aspirin, number of patients ([3]; 300 mg q.d.): 3
Major Bleeds without aspirin, rate ([3]; 300 mg q.d.): 2.1 % per year
Major Bleeds, number of patients ([3]; 300 mg q.d.): 5
Other MACE, number of patients ([3]; 300 mg q.d.): 1
Stroke and Systemic Thromboembolism, number of patients ([3]; 300 mg q.d.): 5
TIA, number of patients ([3]; 300 mg q.d.): 0
Serious adverse events: cardiac disorders, number of patients ([3]; PETRO-Ex): 80
Serious adverse events: gastrointestinal disorders, number of patients ([3]; PETRO-Ex): 28
Serious adverse events: infections, number of patients ([3]; PETRO-Ex): 34
Serious adverse events: nervous system disorders, number of patients ([3]; PETRO-Ex): 33
Serious adverse events, number of patients ([3]; PETRO-Ex, including bleeding and thrombotic events): 184
ALT or AST >2xULN, number of patients ([3]; Total, all doses): 30
ALT or AST >3xULN and Bili >2xULN within 30 days, number of patients ([3]; Total, all doses): 4
ALT or AST >3xULN, number of patients ([3]; Total, all doses): 18
ALT or AST >5xULN, number of patients ([3]; Total, all doses): 11
Adverse Events leading to premature discontinuation, number of patients ([3]; Total, all doses): 120
MI, number of patients ([3]; Total, all doses): 7
Major Bleeds with aspirin, number of patients ([3]; Total, all doses): 19
Major Bleeds without aspirin, number of patients ([3]; Total, all doses): 26
Major Bleeds without aspirin, rate ([3]; Total, all doses): 3.2 % per year
Major Bleeds, number of patients ([3]; Total, all doses): 44
Other MACE, number of patients ([3]; Total, all doses): 11
Stroke and Systemic Thromboembolism, number of patients ([3]; Total, all doses): 20
TIA, number of patients ([3]; Total, all doses): 1
ALT or AST >3xULN and Bili >2xULN within 30 days, number of patients ([3]; Total, all doses, listed as dabigatran etexilate): four
Oral bioavailability, average [4]: 6.5%
Time to peak levels [4]: 2 to 3 h

Reference: patent US20120277269A1 (priority 2008, published 2012)
